For experiment [1], the target named is T1, Glycogen phosphorylase, muscle form (Oryctolagus cuniculus) (UniProt P00489).
T1 sequence (whole entry): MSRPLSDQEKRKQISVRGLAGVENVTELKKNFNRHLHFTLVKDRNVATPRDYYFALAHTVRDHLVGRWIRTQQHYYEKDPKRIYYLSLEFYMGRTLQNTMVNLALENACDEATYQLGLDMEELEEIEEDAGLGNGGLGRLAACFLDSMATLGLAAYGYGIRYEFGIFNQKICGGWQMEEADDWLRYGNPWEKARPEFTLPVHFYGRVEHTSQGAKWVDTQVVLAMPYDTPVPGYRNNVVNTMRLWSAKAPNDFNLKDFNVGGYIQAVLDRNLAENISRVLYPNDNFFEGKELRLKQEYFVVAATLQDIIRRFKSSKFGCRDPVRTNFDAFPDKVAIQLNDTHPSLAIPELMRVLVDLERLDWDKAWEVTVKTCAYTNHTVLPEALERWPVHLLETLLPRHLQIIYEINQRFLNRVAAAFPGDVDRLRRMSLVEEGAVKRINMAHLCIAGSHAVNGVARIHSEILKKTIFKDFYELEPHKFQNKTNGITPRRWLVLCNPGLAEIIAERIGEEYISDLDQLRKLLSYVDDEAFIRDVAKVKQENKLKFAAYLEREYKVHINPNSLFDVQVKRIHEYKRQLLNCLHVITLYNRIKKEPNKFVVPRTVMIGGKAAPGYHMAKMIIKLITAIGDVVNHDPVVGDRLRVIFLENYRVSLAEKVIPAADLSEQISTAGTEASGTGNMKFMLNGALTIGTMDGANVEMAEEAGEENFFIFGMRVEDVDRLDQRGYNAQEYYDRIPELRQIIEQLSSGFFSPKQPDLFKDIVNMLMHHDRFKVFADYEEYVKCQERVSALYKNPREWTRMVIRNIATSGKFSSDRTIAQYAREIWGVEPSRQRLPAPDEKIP
Description: Binding affinity to rabbit muscle glycogen phosphorylase by STD NMR spectrometric analysis.

Experiment [2] deals with Mitogen-activated protein kinase 3 (Homo sapiens) (UniProt P27361). The experiment in a line: Binding affinity to ERK1 (unknown origin) expressed in Escherichia coli by STD NMR spectrometric analysis.
Sequence of Mitogen-activated protein kinase 3 (Homo sapiens) (P27361 whole entry): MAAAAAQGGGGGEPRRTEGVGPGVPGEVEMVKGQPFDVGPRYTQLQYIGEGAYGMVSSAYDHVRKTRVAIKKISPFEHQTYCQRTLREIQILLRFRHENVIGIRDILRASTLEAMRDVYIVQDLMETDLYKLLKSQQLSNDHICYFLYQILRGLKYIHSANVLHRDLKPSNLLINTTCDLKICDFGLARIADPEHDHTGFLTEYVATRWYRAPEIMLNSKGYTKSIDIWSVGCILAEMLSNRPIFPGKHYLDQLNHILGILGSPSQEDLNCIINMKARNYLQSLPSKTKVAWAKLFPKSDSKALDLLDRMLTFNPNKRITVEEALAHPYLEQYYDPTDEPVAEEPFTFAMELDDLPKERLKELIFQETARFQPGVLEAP
Experiment [3] deals with T1, Glycogen phosphorylase, muscle form (Oryctolagus cuniculus). Description: Binding affinity to rabbit muscle glycogen phosphorylase measured for 0.5 to 4 secs by STD NMR spectrometric analysis.
Experiment [4] has as its target T2, Peroxiredoxin-5, mitochondrial (Homo sapiens) (UniProt P30044).
T2 sequence (whole entry): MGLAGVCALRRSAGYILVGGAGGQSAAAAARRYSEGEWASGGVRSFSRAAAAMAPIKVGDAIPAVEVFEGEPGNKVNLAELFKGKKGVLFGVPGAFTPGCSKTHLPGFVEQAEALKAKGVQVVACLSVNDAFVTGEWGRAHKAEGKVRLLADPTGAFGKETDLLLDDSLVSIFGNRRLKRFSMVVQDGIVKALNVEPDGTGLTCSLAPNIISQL
Description: Binding affinity to human PRDX5 expressed in Escherichia coli at ligand/protein ratio 50 and 240 measured over 2 secs by STD NMR spectrometric analysis.

Experiment [5] addresses T2, Peroxiredoxin-5, mitochondrial (Homo sapiens). Description: Binding affinity to human PRDX5 expressed in Escherichia coli at ligand/protein ratio 120 measured over 0.5 to 4 secs by STD NMR spectrometric analysis.
The target is the same in experiment [6]. The experiment in a line: Binding affinity to human PRDX5 expressed in Escherichia coli by STD NMR spectrometric analysis.

Activity calls are given as the source filed them. No cut-off for these calls is given here.

For `c1cnc2[nH]ccc2c1`, the outcome in experiment [1] and in experiment [2] was Active.

For the compound `c1ccc2[nH]ccc2c1`, the result in experiment [3] was Active.

Consider `O=C(O)c1cnc2ccccc2c1`, for which, in experiment [1], the result was Active.

In the case of `Nc1nc2ncnc-2c[nH]1`, in experiment [1], the result was Active.

As for `Cc1ccc(O)c(O)c1`, the outcome in experiment [4] and in experiment [5] was Active.

In the case of `Oc1ccccc1Cc1ccccc1O`, the outcome in experiment [6] was Active.

`Oc1ccccc1-c1ccccc1`: the result in experiment [1] was Active.

The values above are taken from ChEMBL document CHEMBL3627662, “Ligand-Orientation Based Fragment Selection in STD NMR Screening” (J Med Chem, 2015).
